Drawing on patent publication US10131649B2, “Bicyclic compounds as pest control agents” (BAYER CROPSCIENCE AKTIENGESELLSCHAFT, priority 2014, dated 2018), this text covers chromatographic logP and pest or weed control for 48 compounds.

Series [1] in a line: log P by HPLC on reversed-phase columns (OECD Guideline 117), [a] acidic pH 2.7, [b] neutral pH 7.8. The conditions noted are these: reversed-phase (C18) HPLC column. The class given is physicochemical. As for the experimental part: The log P values were determined in accordance with OECD Guideline 117 (EC Directive 92/69/EEC) by HPLC (high-performance liquid chromatography) using reversed-phase (RP) columns (C18), by the following methods:
[a] The LC-MS determination in the acidic range is carried out at pH 2.7 with 0.1% aqueous formic acid and acetonitrile (contains 0.1% formic acid) as eluents; linear gradient from 10% acetonitrile to 95% acetonitrile.
[b] LC-MS determination in the neutral range is effected at pH 7.8 with 0.001 molar aqueous ammonium hydrogencarbonate solution and acetonitrile as eluents; linear gradient from 10% acetonitrile to 95% acetonitrile.
Calibration is carried out using unbranched alkan-2-ones (having 3 to 16 carbon atoms) with known log P values (log P values determined on the basis of the retention times by linear interpolation between two successive alkanones).

For series [2], the system named is green peach aphid (Myzus persicae). Description: Myzus persicae spray test (Chinese cabbage leaf discs). The class given is in vivo. The conditions noted are these: foliar, 144 h, read-out: efficacy in %. As for the experimental part: Myzus persicae—Spray Test
Solvent: • 78 parts by weight of acetone • 1.5 parts by weight of dimethylformamide
Emulsifier: alkylaryl polyglycol ether
To produce a suitable preparation of active compound, 1 part by weight of active compound is dissolved using the specified parts by weight of solvent and made up with water containing an emulsifier concentration of 1000 ppm until the desired concentration is attained. To produce further test concentrations, the formulation is diluted with emulsifier-containing water.
Discs of Chinese cabbage leaves (Brassica pekinensis) infested by all stages of the green peach aphid (Myzus persicae) are sprayed with an active compound formulation of the desired concentration.
After 6 days, the efficacy in % is determined. 100% means that all the aphids have been killed; 0% means that no aphids have been killed.

The mark [3] stands for this setting: acidic pH 2.7, read-out: logP[a].
[4] abbreviates: neutral pH 7.8, read-out: logP[b].

Each structure is given as a SMILES string. Read-outs that look alike come from different tables or passages of the source.

With `CCn1cc(-c2ccc3nn(-c4cccnc4)cc3c2)cn1` [Example 73], the chromatographic logP in series [1] (setting [3]) stood at 1.81; in series [1] (setting [4]), 1.82. Besides, the pest or weed control at 500 g/ha in series [2] was 90%. For `Cc1cc(C)c([S+]([O-])CC(F)(F)F)cc1NC(=O)c1ccc2nn(-c3cccnc3)cc2c1` (centres unmarked) [Example 97], the chromatographic logP in series [1] (setting [3]) was found to be 2.2; in series [1] (setting [4]), 2.22. Besides, the pest or weed control at 500 g/ha in series [2] worked out at 100%. As to `CN(C)C(=O)c1ccc2nn(-c3cncnc3)cc2c1` [Example 27], in series [2], the pest or weed control at 500 g/ha was 90%.

For the compound `O=C(NCC(F)F)c1ccc2nn(-c3cncnc3)cc2c1` [Example 30], the pest or weed control at 500 g/ha in series [2] was determined as 100%. For the compound `Cc1cc(C)c([S+]([O-])CC(F)(F)F)cc1-c1ccc2nn(-c3cccnc3)cc2c1` (centres unmarked) [Example 54, 5-[2,4-Dimethyl-5-(2,2,2-trifluoroethylsulphinyl)phenyl]-2-(3-pyridyl)indazole], the chromatographic logP in series [1] (setting [3]) was 2.99; in series [1] (setting [4]), 2.92. Moreover, the pest or weed control at 500 g/ha in series [2] came out at 90%. As for `CNC(=O)c1ccc2nn(-c3cncnc3)cc2c1` [Example 31], the pest or weed control at 500 g/ha in series [2] amounted to 90%. Consider `FC(F)(F)c1cnn(-c2ccc3nn(-c4cccnc4)cc3c2)c1` [Example 55, 2-(3-Pyridyl)-5-[4-(trifluoromethyl)pyrazol-1-yl]indazole], for which the chromatographic logP is 2.77 in series [1] (setting [3]) and 2.74 in series [1] (setting [4]). Further, the pest or weed control at 500 g/ha in series [2] was found to be 90%. For `CN(C(=O)c1ccc2nn(-c3cccnc3)cc2c1)C1CC1` [Example 75, N-Cyclopropyl-N-methyl-2-(pyridin-3-yl)-2H-indazole-5-carboxamide] the same measures were 1.47, 1.5 and 90%. Taken in the same sequence, the figures for `CSCCNC(=O)c1ccc2nn(-c3cccnc3)cc2c1` [Example 85] were 1.45, 1.5 and 90%. Turning to `CSCCC(=O)N(C)c1ccc2nn(-c3cncc(F)c3)cc2c1` [Example 108], the pest or weed control at 500 g/ha in series [2] amounted to 100%. With `CN(C(=O)CC[S+](C)[O-])c1ccc2nn(-c3cccnc3)cc2c1` (centres unmarked) [Example 123], the pest or weed control at 500 g/ha in series [2] is 90%. For `CN(CC(F)F)C(=O)c1ccc2nn(-c3cccnc3)cc2c1` [Example 86], the chromatographic logP in series [1] (setting [3]) and in series [1] (setting [4]) was 1.55 in each case. In addition, the pest or weed control at 500 g/ha in series [2] stood at 100%. In the case of `CN(CC(F)(F)F)C(=O)c1ccc2nn(-c3cccnc3)cc2c1` [Example 90], the chromatographic logP in series [1] (setting [3]) is 1.84; in series [1] (setting [4]), 1.87. Also, the pest or weed control at 500 g/ha in series [2] was determined as 90%. Turning to `CC(F)(F)CNC(=O)c1ccc2nn(-c3cncnc3)cc2c1` [Example 33], the pest or weed control at 500 g/ha in series [2] is 100%.

Regarding `C[S+]([O-])Cn1cc(-c2ccc3nn(-c4cccnc4)cc3c2)cn1` (centres unmarked) [Example 74], the chromatographic logP in series [1] (setting [3]) turned out to be 1.17; in series [1] (setting [4]), 1.19. Besides, the pest or weed control at 500 g/ha in series [2] worked out at 100%. For `Cc1ccc(-c2ccc3nn(-c4cccnc4)cc3c2)cc1[S+]([O-])CC(F)(F)F` (centres unmarked) [Example 53, 5-[4-Methyl-3-(2,2,2-trifluoroethylsulphinyl)phenyl]-2-(3-pyridyl)indazole] the same measures were 2.72, 2.68 and 90%. For the compound `Cc1cc(F)c(C(=O)N(C)c2ccc3nn(-c4cncc(F)c4)cc3c2)cc1[S+]([O-])CC(F)(F)F` (centres unmarked) [Example 118], the pest or weed control at 500 g/ha in series [2] was found to be 90%.

Regarding `CCN(CC)C(=O)c1ccc2nn(-c3cccnc3)cc2c1` [Example 89], the chromatographic logP in series [1] (setting [3]) was determined as 1.63; in series [1] (setting [4]), 1.65. Moreover, the pest or weed control at 500 g/ha in series [2] was determined as 100%.

For the compound `Fc1ccnc(-c2ccc3nn(-c4cccnc4)cc3c2)c1` [Example 101], the chromatographic logP in series [1] (setting [3]) stood at 2.04; in series [1] (setting [4]), 2.21. In addition, the pest or weed control at 500 g/ha in series [2] turned out to be 90%.

As to `Clc1cccnc1-c1ccc2nn(-c3cccnc3)cc2c1` [Example 68], the values for the chromatographic logP in series [1] (setting [3]) and in series [1] (setting [4]) were 2.17 and 2.21, respectively. Besides, in series [2], the pest or weed control at 500 g/ha worked out at 100%. Turning to `O=C(NCC(F)(F)F)c1ccc2nn(-c3cncnc3)cc2c1` [Example 26], the pest or weed control at 100 g/ha in series [2] was determined as 90%.

`O=C(c1ccc2nn(-c3cccnc3)cc2c1)N1CCSCC1` [Example 92]: the chromatographic logP amounted to 1.5 in series [1] (setting [3]) and 1.58 in series [1] (setting [4]). Further, the pest or weed control at 500 g/ha in series [2] came out at 100%. For `Cn1cc(-c2ccc3nn(-c4cccnc4)cc3c2)cn1` [Example 58, 5-(1-Methylpyrazol-4-yl)-2-(3-pyridyl)indazole] the same measures were 1.51, 1.57 and 90%. As to `Cc1ccc(C(=O)N(C)c2ccc3nn(-c4cncc(F)c4)cc3c2)cc1[S+]([O-])CC(F)(F)F` (centres unmarked) [Example 114], the pest or weed control at 500 g/ha in series [2] was determined as 90%.

As to `c1cncc(-n2cc3cc(-c4cn[nH]c4)ccc3n2)c1` [Example 98, 5-(1H-Pyrazol-4-yl)-2-(pyridin-3-yl)-2H-indazole], the chromatographic logP in series [1] (setting [3]) was determined as 1.27; in series [1] (setting [4]), 1.3.

In the case of `CSCn1cc(-c2ccc3nn(-c4cccnc4)cc3c2)cn1` [Example 63], the chromatographic logP in series [1] (setting [3]) amounted to 2.02. In addition, the pest or weed control at 500 g/ha in series [2] is 90%. For the compound `CSCn1ccc(-c2ccc3nn(-c4cccnc4)cc3c2)n1` [Example 62], the results for the chromatographic logP in series [1] (setting [3]) and in series [1] (setting [4]) were 1.97 and 2.11, respectively. Besides, the pest or weed control at 500 g/ha in series [2] is 90%.

For `CSCCC(=O)N(C)c1ccc2nn(-c3cccnc3)cc2c1` [Example 111], in series [2], the pest or weed control at 500 g/ha amounted to 90%. Still for that read-out and setting: the value for `CN(C)C(=O)c1ccc2nn(-c3cccnc3)cc2c1` [Example 1] was 100%; that for `CC(C[S+](C)[O-])C(=O)N(C)c1ccc2nn(-c3cncc(F)c3)cc2c1` (centres unmarked) [Example 122] was 100%.

On to `CSCC(C)C(=O)N(C)c1ccc2nn(-c3cccnc3)cc2c1` (centres unmarked) [Example 110], for which the pest or weed control at 500 g/ha in series [2] amounted to 90%.

Take `CSCC(C)C(=O)N(C)c1ccc2nn(-c3cncc(F)c3)cc2c1` (centres unmarked) [Example 109]: in series [2], the pest or weed control at 500 g/ha was 100%. The same measure, in the same setting: in the case of `O=C(NCC(F)(F)F)c1ccc2nn(-c3cccnc3)cc2c1` [Example 3] it was 100%; in that of `Cc1ccc(C(=O)N(C)c2ccc3nn(-c4cccnc4)cc3c2)cc1[S+]([O-])CC(F)(F)F` (centres unmarked) [Example 115], 100%; in that of `CN(C(=O)CCS(C)(=O)=O)c1ccc2nn(-c3cccnc3)cc2c1` [Example 129], 90%. The same measure, in the same setting: the value for `CN(C)C(=O)c1ccc2nn(-c3cncc(F)c3)cc2c1` [Example 18] was 90%. Regarding `CCNC(=O)c1ccc2nn(-c3cncnc3)cc2c1` [Example 29], the pest or weed control at 100 g/ha in series [2] was determined as 90%. For the compound `CSCC(C)C(=O)N(C)c1ccc2nn(-c3cnn(C)c3)cc2c1` (centres unmarked) [Example 105, N,2-Dimethyl-N-(2-(1-methyl-1H-pyrazol-4-yl)-2H-indazol-5-yl)-3-(methylthio) propanamide], in series [2] (application rate 500 g/ha, after 6 days, Chinese cabbage leaf discs, 100% = all aphids killed), the pest or weed control at 500 g/ha worked out at 90%. `O=C(NCC(F)(F)F)c1ccc2nn(-c3cncc(F)c3)cc2c1` [Example 19]: the pest or weed control at 500 g/ha in series [2] amounted to 90%. Same read-out and setting: the value for `CC(CS(C)(=O)=O)C(=O)N(C)c1ccc2nn(-c3cccnc3)cc2c1` (centres unmarked) [Example 130] was 90%. The same measure, in the same setting: in the case of `Cn1cc(-n2cc3cc(C(=O)NCC(F)(F)F)ccc3n2)cn1` [Example 37] it was 90%; in that of `CN(C(=O)CC[S+](C)[O-])c1ccc2nn(-c3cncc(F)c3)cc2c1` (centres unmarked) [Example 121], 100%; in that of `CN(C(=O)CC(C)(F)F)c1ccc2nn(-c3cccnc3)cc2c1` [Example 112], 100%. In the case of `Cc1ccc(C(=O)N(C)c2ccc3nn(-c4cnn(C)c4)cc3c2)cc1[S+]([O-])CC(F)(F)F` (centres unmarked) [Example 116], the pest or weed control at 500 g/ha in series [2] was found to be 90%. Same read-out and setting: in the case of `CON(C)C(=O)c1ccc2nn(-c3cncnc3)cc2c1` [Example 32] it was 100%. For the compound `CN(C(=O)CC(C)(F)F)c1ccc2nn(-c3cncc(F)c3)cc2c1` [Example 113], the pest or weed control at 500 g/ha in series [2] came to 90%. `O=C(c1ccc2nn(-c3cccnc3)cc2c1)N1CCS(=O)(=O)CC1` [Example 93]: the chromatographic logP in series [1] (setting [3]) amounted to 0.87; in series [1] (setting [4]), 1.03.

Consider `CN(C(=O)CCS(C)(=O)=O)c1ccc2nn(-c3cncc(F)c3)cc2c1` [Example 128], for which, in series [2], the pest or weed control at 500 g/ha was determined as 100%.
